The source of these data is PMC8869984, “Multifunctional Silver(I) Complexes with Metronidazole Drug Reveal Antimicrobial Properties and Antitumor Activity against Human Hepatoma and Colorectal Adenocarcinoma Cells” (Cancers, 2022).

SMILES strings stand for the structures.

For assay [1], the system named is HepG2 cells. Kind of assay: LDH leakage assay (membrane integrity), 72 h exposure. In kind it is cell-based, human. Particulars: mean ± SD, n = 3. As for the experimental part:
(§1) The human hepatoma (HepG2) and colorectal adenocarcinoma (Caco-2) cells were purchased from the American Type Culture Collection: ATCC HB-8065 and ATCC HTB-37, respectively. These cells were cultured in Minimum Essential Medium Eagle (MEME) (ATCC). The murine fibroblasts cell line (Balb/c 3T3 clone A31) (gift from the Department of Swine Diseases of the National Veterinary Research Institute in Pulawy) was cultured in Dulbecco’s Modified Eagle Medium (DMEM) (ATCC). The media were supplemented with 10% BCS (Balb/c 3T3), 10% FBS (HepG2), 20% FBS (Caco-2), 1% L-glutamine, 1% antibiotic solution. The cells were maintained in 75 cm^2 cell culture flasks (NUNC) in a humidified incubator at 37 °C in an atmosphere of 5% CO2. The medium was refreshed every two or three days, and the cells were trypsinized by 0.25% trypsin–0.02% EDTA after reaching 70–80% confluence. Single cell suspensions were prepared and adjusted to a density of 2 × 10^5 cell/mL^−1 (HepG2), 1 × 10^5 cell/mL^−1 (Caco-2) and 5 × 10^4 cell/mL^−1 (Balb/c 3T3). The cell suspension was transferred to 96-well plates (100 µL/well) and incubated for 24 h before the exposure to the studied compounds. Stock solutions of ligands and metal complexes were prepared in sterile water and diluted with culture medium to obtain a concentration range from 0.1 to 10 µM. The final concentration of sterile water was 0.1% in the medium. […] As a negative control, cultured cells were grown in the absence of studied compounds. Each concentration was tested in six replicates in three independent experiments. Cytotoxicity was assessed after 72 h of exposure of the cells to compounds. The medium was not changed during the incubation time.
(§2) The integrity of the plasma membrane was assessed through the test of lactate dehydrogenase (LDH) release, which was monitored using the commercially available Cytotoxicity Detection Kit (LDH) (Roche Diagnostics, Warsaw, Poland). […] The absorbance was measured at 492 nm in a microplate reader Synergy HTX multi-mode reader (BioTek® Instruments Inc., Winooski, VT, USA) using a blank as a reference. […]

The subject of assay [2] is Balb/c 3T3 cells. Kind of assay: MTT assay (mitochondrial activity), 72 h exposure. Type of assay: cell-based, murine. Particulars: Balb/c 3T3, MTT, mean ± SD, n = 3. How it is done:
as §1
The metabolic activity of living cells was assessed by the measurement of the activity of dehydrogenases. […] The plate was shaken for 15 min at room temperature and transferred to a microplate reader Synergy HTX multi-mode reader (BioTek® Instruments Inc., Winooski, VT, USA) to measure the absorbance at 570 nm, using a blank as a reference. Cytotoxicity was expressed as a percentage of the negative control. […]
On the technique in general: Tetrazolium assays rely on reduction of a dye to a coloured formazan, in cell work by metabolically active cells.

The test system of assay [3] is Balb/c 3T3 cells. Briefly: NRU assay (lysosomal activity), 72 h exposure. Type of assay: cell-based, murine. Particulars: Balb/c 3T3, NRU, mean ± SD, n = 3. How it is done: as §1
This method is based on staining living cells with neutral red, which readily diffuses through the plasma membrane and accumulates in lysosomes. […] After 10 min of shaking, the absorbance of the dissolved NR was measured using a Synergy HTX multi-mode reader (BioTek® Instruments Inc., Winooski, VT, USA) at 540 nm using a blank as a reference. Cytotoxicity was expressed as a percentage of the negative control. […]

Assay [4] relates to Balb/c 3T3 cells. Kind of assay: TPC assay (total protein content), 72 h exposure. Particulars: Balb/c 3T3, TPC, mean ± SD, n = 3. In kind it is cell-based, murine. How it is done: as §1
This assay is based upon staining the total cellular protein (proliferation). […] The absorbance was measured at 595 nm in a microplate reader Synergy HTX multi-mode reader (BioTek® Instruments Inc., Winooski, VT, USA) using a blank as a reference. Cytotoxicity was expressed as a percentage of the negative control. […]

The test system of assay [5] is Balb/c 3T3 cells. Briefly: LDH leakage assay (membrane integrity), 72 h exposure. Type of assay: cell-based, murine. Particulars: Balb/c 3T3, LDH, mean ± SD, n = 3. How it is done: as §1, §2

For orientation: IC50 means the point on the concentration scale where inhibition reaches its midpoint. Consider `N.N.[Cl][Pt][Cl]` [Cisplatin, cisplatin], for which the IC50 in assay [1] was under 0.1 µM; in assay [2] it was over 10 µM; in assay [3] it was over 10 µM; in assay [4], over 10 µM; in assay [5] it was over 10 µM.
